According to patent US20020151551A1, “Use of growth hormone secretagogues in conjunction with physical exercise cross reference to related application” (priority 2000, published 2002):

Assays:
[1] = tested on: serum insulin-like growth factor-1; quadriceps muscle; conditions: canines during remobilization; cited from earlier work
diet-induced catabolism = conditions: orally active; cited from earlier work
[2] = tested on: exercise-induced growth hormone secretion; experiment: Phase I double-blind, placebo-controlled, multiple dose evaluation: effect on exercise-induced growth hormone secretion (exercise bicycle); type: in vivo, human; conditions: for growth hormone AUC, End of Treatment, Mean: Day 7, calorically restricted obese subjects; for growth hormone AUC, End of Treatment, Mean / growth hormone AUC, Change, Mean: AUC up to 150 minutes post exercise; for growth hormone AUC, Change, Mean: Day 7 versus screening visit
Method: Phase I Double-Blind, Placebo-Controlled, Multiple Dose Evaluation of Test Compound in Calorically Restricted, Obese Men and Women
A total of 48 obese subjects, without significant other medical problems and a negative exercise tolerance test, were recruited for this study and placed on a caloric-restricted diet. Subjects had been randomized to either placebo, 3 mg po tid, 6 mg po tid or 10 mg po qam of the test compound, 2-amino-N-[2-(3a-(R)-benzyl-2-methyl-3-oxo-2,3,3a,4,6,7-hexahydro-pyrazolo[4,3-c]pyridin-5-yl)-1-(R)-benzyloxymethyl-2-oxo-ethyl]-isobutyramide, L-tartrate for a total of seven days.
One of the objectives of this study was to examine the effect of the test compound on exercise-induced growth hormone secretion. The testing was conducted on an exercise bicycle.
One of the efficacy measures of this study was the area under the growth hormone secretory response curve over time (AUC). The above table summarizes the growth hormone AUC values at the screening visit (“Before Treatment”) and at Day 7 (“End of Treatment”) for subjects, who completed exercise at both visits. Also, the AUC values for these subjects were calculated for up to 150 minutes post exercise. The “p-value” in the above table, which is associated with each active treatment group, is derived from comparing each active treatment group with the placebo group, using the two-sample Wilcoxon test.

Row | SMILES | serum insulin-like growth factor-1 levels [1] | size and strength of the quadriceps muscle [1] | diet-induced catabolism (diet-induced catabolism) | growth hormone AUC, End of Treatment, Mean ([2]; 3 mg p.o. tid for seven days) | growth hormone AUC, Change, Mean ([2]; 3 mg p.o. tid for seven days) | growth hormone AUC, End of Treatment, Mean ([2]; 6 mg p.o. tid for seven days) | growth hormone AUC, Change, Mean ([2]; 6 mg p.o. tid for seven days) | growth hormone AUC, End of Treatment, Mean ([2]; 10 mg p.o. qam for seven days) | growth hormone AUC, Change, Mean ([2]; 10 mg p.o. qam for seven days) | effect on exercise-induced growth hormone secretion ([2]; overall finding of the study, versus placebo)
1 | CC(C)(N)C(=O)N[C@H](COCc1ccccc1)C(=O)N1CCC2(CC1)CN(S(C)(=O)=O)c1ccccc12 [MK-677] | elevated levels of serum insulin-like growth factor-1 | increased the size and strength of the quadriceps muscle | reverses diet-induced catabolism |  |  |  |  |  |  | 
2 | CN1N=C2CCN(C(=O)[C@@H](COCc3ccccc3)NC(=O)C(C)(C)N)C[C@@]2(Cc2ccccc2)C1=O.O=C(O)C(O)C(O)C(=O)O [test compound, 2-amino-N-[2-(3a-(R)-benzyl-2-methyl-3-oxo-2,3,3a,4,6,7-hexahydro-pyrazolo[4,3-c]pyridin-5-yl)-1-(R)-benzyloxymethyl-2-oxo-ethyl]-isobutyramide, L-tartrate] |  |  |  | 384 | 298 | 395 | 250 | 927 | 684 | augmented exercise-induced growth hormone secretion
